Assay results: US9351915B2, “Ascorbic acid derivative composition and production method of the same, ascorbic acid derivative solution, and skin external preparation” (SHOWA DENKO K.K., priority 2012, dated 2016)

How the values were obtained:
[1] = Storage stability test (aqueous solution, residual ratio by HPLC); assay type: physicochemical; conditions: 2% by mass ascorbic acid derivative in purified water, glass bottle with lid, 10 days at 40° C., light shielding; total of 2- and 3-phosphate salts
Description: The sodium salt of L-ascorbic acid-2-phosphoric acid-6-palmitate obtained in Production Example 2 and the sodium salt of L-ascorbic acid-3-phosphoric acid-6-palmitate obtained in Production Example 4 were mixed at a ratio (% by mass) shown in Table 1 to prepare ascorbic acid derivative compositions of Examples 1 to 3.
The mixture obtained in Production Example 6 ((sodium salt of L-ascorbic acid-2-phosphoric acid-6-palmitate): (sodium salt of L-ascorbic acid-3-phosphoric acid-6-palmitate)=97.7:2.3 (mass ratio)) was used as it is as an ascorbic acid derivative composition of Example 4. […]
The concentration of ascorbic acid derivative in each of the solutions obtained before standing (immediately after preparation) and after standing for 10 days was measured, and the “residual ratio” was determined from the results by the following formula.
The concentration of ascorbic acid derivative contained in the solution was measured by the same measuring conditions as in the evaluation of the yield, with a high performance liquid chromatography apparatus using the Shodex SB 802.5 HQ column (manufactured by Showa Denko K.K.). […]

[2] = Solubility test (time until solid is absent in aqueous medium); assay type: physicochemical; conditions: 20° C., 500 rpm, visual observation every 5 minutes
Experimental: Each substance shown in Table 2 was prepared at the ratio (% by mass) indicated in Table 2 so that the total amount was 100 g. First, pure water or a mixture of pure water and methanol serving as a solvent was placed in a beaker having a capacity of 200 mL, and the beaker was immersed in a water bath which was controlled to 20° C. Then, stirring was performed at a rotational speed of 500 rpm with a stirrer chip having a diameter of 2.5 cm, and the ascorbic acid derivative was mixed at the point where the liquid temperature reached 20° C. This time point was set as the zero point and the time (min) until the solid became absent in the mixture was measured. As for the end point, visual observation was carried out every 5 minutes from the start of the stirring, and the time point at which the mixture became clear was determined as the end point.

Row | SMILES | Residual ratio (%) [1] [%] | further results
1 | CCCCCCCCCCCCCCCC(=O)OCC(O)C1OC(=O)C(OP(=O)([O-])[O-])=C1[O-].[Na+].[Na+].[Na+] [Comp. Ex. 1, Sodium salt of L-ascorbic acid-2-phosphoric acid-6-palmitate] | 88.6 | 
2 | CCCCCCCCCCCCCCCC(=O)OCC(O)C1OC(=O)C(OP(=O)([O-])[O-])=C1[O-].[Na+].[Na+].[Na+] [Comp. Ex. 3, Sodium salt of L-ascorbic acid-2-phosphoric acid-6-palmitate] |  | Time required for dissolution ([2]; 10% by mass ascorbic acid derivative in 90% by mass pure water): 50 min
3 | CCCCCCCCCCCCCCCC(=O)OCC(O)C1OC(=O)C([O-])=C1OP(=O)([O-])[O-].[Na+].[Na+].[Na+] [Comp. Ex. 2, Sodium salt of L-ascorbic acid-3-phosphoric acid-6-palmitate] | 83.9 | 
4 | CCCCCCCCCCCCCCCC(=O)OCC(O)C1OC(=O)C(OP(=O)([O-])[O-])=C1[O-].[Na+].[Na+].[Na+] [Comp. Ex. 4, Sodium salt of L-ascorbic acid-2-phosphoric acid-6-palmitate] |  | Time required for dissolution ([2]; 10% by mass ascorbic acid derivative in 70% by mass pure water + 20% by mass methanol): 65 min
